Source: ChEMBL document CHEMBL1155767, “Three new sesquiterpene glycosides from Dendrobium nobile with immunomodulatory activity” (2001)

Experiments:
Type in all cases: functional
Lymphocyte [1] = assay: Immunomodulatory activity in concanavalin A-stimulated mouse lymphocytes assessed as proliferative optical density at 10 uM after 48 hrs by MTT assay (Rvb=0.47+/-0.01)
Lymphocyte [2] = assay: Immunomodulatory activity in LPS-stimulated mouse lymphocytes assessed as proliferative optical density at 10 uM after 48 hrs by MTT assay (Rvb=0.45+/-0.01)
Lymphocyte [3] = assay: Immunomodulatory activity in concanavalin A-stimulated mouse lymphocytes assessed as proliferative optical density at 1 uM after 48 hrs by MTT assay (Rvb=0.47+/-0.01)
Lymphocyte [4] = assay: Immunomodulatory activity in LPS-stimulated mouse lymphocytes assessed as proliferative optical density at 0.1 uM after 48 hrs by MTT assay (Rvb=0.45+/-0.01)
Lymphocyte [5] = assay: Immunomodulatory activity in concanavalin A-stimulated mouse lymphocytes assessed as proliferative optical density at 0.1 uM after 48 hrs by MTT assay (Rvb=0.47+/-0.01)
Lymphocyte [6] = assay: Immunomodulatory activity in LPS-stimulated mouse lymphocytes assessed as proliferative optical density at 1 uM after 48 hrs by MTT assay (Rvb=0.45+/-0.01)
Lymphocyte [7] = assay: Immunomodulatory activity in concanavalin A-stimulated mouse lymphocytes assessed as proliferative optical density at 1 uM after 48 hrs by MTT assay (Rvb=0.80+/-0.02)
Lymphocyte [8] = assay: Immunomodulatory activity in LPS-stimulated mouse lymphocytes assessed as proliferative optical density at 1 uM after 48 hrs by MTT assay (Rvb=0.56+/-0.03)
Lymphocyte [9] = assay: Immunomodulatory activity in concanavalin A-stimulated mouse lymphocytes assessed as proliferative optical density at 10 uM after 48 hrs by MTT assay (Rvb=0.80+/-0.02)
Lymphocyte [10] = assay: Immunomodulatory activity in LPS-stimulated mouse lymphocytes assessed as proliferative optical density at 0.1 uM after 48 hrs by MTT assay (Rvb=0.56+/-0.03)
Lymphocyte [11] = assay: Immunomodulatory activity in LPS-stimulated mouse lymphocytes assessed as proliferative optical density at 10 uM after 48 hrs by MTT assay (Rvb=0.56+/-0.03)
Lymphocyte [12] = assay: Immunomodulatory activity in concanavalin A-stimulated mouse lymphocytes assessed as proliferative optical density at 0.1 uM after 48 hrs by MTT assay (Rvb=0.80+/-0.02)

SMILES	OD (Lymphocyte [1])	OD (Lymphocyte [2])	OD (Lymphocyte [3])	OD (Lymphocyte [4])	OD (Lymphocyte [5])	OD (Lymphocyte [6])	OD (Lymphocyte [7])	OD (Lymphocyte [8])	OD (Lymphocyte [9])	OD (Lymphocyte [10])	OD (Lymphocyte [11])	OD (Lymphocyte [12])
CC(C)[C@H]1CC[C@]2(C)[C@@H](CO[C@@H]3O[C@H](CO)[C@@H](O)[C@H](O)[C@H]3O)CC[C@@H]2[C@@H]1CO[C@@H]1O[C@H](CO)[C@@H](O)[C@H](O)[C@H]1O [DENDRONOBILOSIDE A]	0.6	0.56	0.53	0.49	0.46	0.5	–	–	–	–	–	–
CC(C)[C@H]1CC[C@@]2(C)[C@H](CC[C@]2(O)CO)[C@@H]1CO[C@@H]1O[C@H](CO)[C@@H](O)[C@H](O)[C@H]1O [DENDRONOBILOSIDE B]	–	–	–	–	–	–	0.68	0.51	0.71	0.54	0.57	0.68
C[C@@H]1CC[C@H]2[C@@H]1[C@H]1[C@@H](CC[C@@]2(O)CO[C@@H]2O[C@H](CO)[C@@H](O)[C@H](O)[C@H]2O)[C@@]1(C)CO [DENDROSIDE A]	0.5	0.45	0.62	0.45	0.64	0.52	–	–	–	–	–	–
